Data taken from PMC11618496, “SHIV remission in macaques with early treatment initiation and ultra long-lasting antiviral activity” (Nature Communications, 2024).
Several values for one entry are separate records, joined by “and”; a condition that tells them apart may be missing. Equal entries are not always repeated. Values belong to the compound of their own block, whether it stands above or below them.

Columns and labels:
[1] = for median concentration in PBMCs during the entire treatment period: eART + VES group; for median (range) concentration in PBMCs, period of full adherence / median (range) concentration in PBMCs, period of suboptimal adherence: eART group; for median (range) concentration in PBMCs, period of full adherence: months 0–3.5, 24 h post-dosing, oral FTC/TAF; for median (range) concentration in PBMCs, period of suboptimal adherence: months 3.5 to 6
Protocol: (§1) RT-SHIV was selected for the study since it contains the HIVHXBc2 RT that is sensitive to RPV. RT-SHIV was obtained through the NIH AIDS Reagent Program, Division of AIDS, NIAID, NIH[17]–[19]. The stock was maintained in liquid nitrogen in individual 1 mL aliquots until use. […] CAB LA and RPV LA were obtained from ViiV Healthcare and Janssen, respectively. […] CAB LA (50 mg/kg) and RPV LA (200 mg/kg) were given intramuscularly once a month[27],[45]. The macaque used in the terminal PK study received CAB LA (50 mg/kg) and RPV LA (200 mg/kg) from Cabenuva®.
(§2) PBMCs were isolated from blood collected in BD Vacutainer® CPT™ Sodium Citrate Cell Preparation Tubes, and red blood cells were lysed with BioLegend RBC lysis buffer. Cell counts and viability were determined using a Guava Cell Counter and Cytosoft data acquisition and analysis software (version 6.02; Millipore Billerica, MA) or a Countess (Invitrogen). Three million viable cells were pelleted, washed with 1 mL of physiological saline, and resuspended in 500 µl ice-cold 80% methanol. Samples were vortexed for 1 min and immediately frozen at − 70 °C. Prior to analysis, cellular debris was pelleted, and supernatants were transferred to new tubes. Supernatants were dried down and reconstituted in 100 μl of 50 mM ammonium acetate buffer (pH 7.0), then centrifuged at 17,000 × g to remove insoluble particulates. […] Calibration curves were generated from serially diluted standards over the range from 0.25 to 10 nM.

[2] = cited from earlier work; for median trough concentration in human PBMCs: reviewer comment, 25mg TAF dose ref 12
[3] = Intracellular TFV-DP and FTC-TP in lymph node mononuclear cells and rectal tissues; settings: lymph node mononuclear cells from axillary or inguinal lymph nodes
[4] = CAB and RPV concentrations in macaque plasma; type: in vivo, Rhesus macaques; settings: for median plasma levels during the treatment phase: macaques, monthly IM CAB LA 50 mg/kg and RPV LA 200 mg/kg; for plasma concentration, individual macaques: matched to CSF samples; for concentration at 4 weeks: matched to CSF: ~ 6 months of treatment, 4 weeks after the previous CAB LA/RPV LA injection, read-out: Plasma, median (range)
Protocol: Plasma concentrations of CAB were measured weekly.

[5] = Extracellular TFV, FTC, CAB and RPV in rectal tissue homogenates; type: in vivo, Rhesus macaques; settings: collected after 1 to 3 months of ART
Protocol: (§3) A cocktail of methanol containing internal standards was added to precipitate proteins. After a brief centrifugation and removal of protein precipitates, the supernatant was evaporated to near dryness and re-suspended with mobile phase A. An aqueous-acetonitrile mobile-phase gradient was used to elute the drugs from a C18 column (100*1 mm, Imtakt) and into the analyzer. Drug concentrations were calculated from a standard curve with a range of 0.5–2000 ng/mL using Analyst software. […] Plasma concentrations of CAB were measured weekly. Plasma concentrations of RPV were measured 4 (9 observations), 2 (2 observations), or 3 (2 observations) weeks after the previous injection. The concentrations of RPV in plasma, CSF, and tissues and the concentrations of CAB in CSF were measured at the Clinical Pharmacology and Analytical Chemistry (CPAC) Laboratory, University of North Carolina Center for AIDS Research. The LOQ for RPV in plasma is 1 ng/mL.

[6] = Drug concentrations in cerebrospinal fluid (CSF); type: in vivo, Rhesus macaques; settings: for Kp at 4 weeks: CSF and plasma, read-out: CSF-to-plasma ratio; for concentration at 4 weeks: CSF
Protocol: as §3

[7] = in vivo; settings: female, rhesus monkey
Protocol: as §1, §3

[8] = cited from earlier work; for plasma levels in humans: 400 mg of CAB LA or 600 mg of RPV LA every month for 48 weeks ref 21; for apparent terminal elimination half-life: humans, single intramuscular injection ref 16
[9] = no reference given; cited from earlier work
[10] = no reference given; cited from earlier work; remark: listed apart in the source
[11] = set-up: method as in Letendre; settings: 7-10 days after injection ref Letendre; cited from earlier work
[12] = tested on: reverse transcriptase; settings: Rectal
Protocol: as §2

[13] = rhesus monkey, in vivo
[14] = rhesus monkey, plasma, intramuscular
[15] = rhesus monkey, intramuscular, 4 weeks after dosing (author rebuttal), read-out: macaque CSF values, approximate
[16] = rhesus monkey, other: oral (FTC) and intramuscular (CAB LA), ~ 6 months of treatment, 4 weeks after the previous CAB LA/RPV LA injection, read-out: CSF, median (range)
[17] = ~ 6 months of treatment, 4 weeks after the previous CAB LA/RPV LA injection
[18] = Tissue concentration, Axillary lymph nodes
[19] = Tissue concentration, Basal ganglia
[20] = Tissue concentration, Cerebellum
[21] = Tissue concentration, Cervical lymph nodes
[22] = Tissue concentration, Iliac lymph nodes
[23] = Tissue concentration, Inguinal lymph nodes
[24] = Tissue concentration, Mesenteric lymph nodes
[25] = Tissue concentration, Spinal cord
[26] = median concentration in brain tissues
[27] = median concentration in lymphoid tissues
[28] = median concentration in the GI tract

SMILES: CC(Cn1cnc2c(N)ncnc21)OCP(=O)(O)OP(=O)(O)OP(=O)(O)O (stereo in doubt) [TFV-DP, tenofovir diphosphate]
fold higher concentrations in PBMCs and lymphoid tissues than achieved with TDF ([1]; comparison with ref 10): about 10 | median concentration in PBMCs during the entire treatment period [1]: 1162 fmols/10^6 PBMCs | median (range) concentration in PBMCs, period of full adherence [1]: 1753 (275–2809) fmols/10^6 PBMCs | median (range) concentration in PBMCs, period of suboptimal adherence [1]: 329 (63–1688) fmols/10^6 PBMCs | times higher in PBMCs than in humans ([1]; full adherence vs humans treated with 25 mg of TAF): about 3.2 | median trough concentration in human PBMCs [2]: 523 fmol/10^6 cells | Lymph nodes, median (range) [3]: 367 (142–620) fmol/10^6 cells

SMILES: C[C@H]1CO[C@@H]2Cn3cc(C(=O)NCc4ccc(F)cc4F)c(=O)c(O)c3C(=O)N12 [CAB, cabotegravir]
median plasma levels during the treatment phase [4]: 2400 ng/mL | plasma concentration, individual macaques [4]: 1040 ng/mL and 1050 ng/mL and 630 ng/mL and 480 ng/mL | decline of plasma concentration below the PA-IC90 after the last injection [4, 14]: declined below the PA-IC90 two months later | times plasma level above the PA-IC90 during treatment [4, 14]: 13 | concentration at 4 weeks [4, 14]: 835 ng/mL | Rectal tissues, extracellular drug, median (range) [5]: 0.60 (0.25–2.65) ng/mg of tissue | Kp at 4 weeks ([6]; rhesus monkey, intramuscular): 0.006 | concentration at 4 weeks [6, 15]: ~6 ng/mL | concentration at 4 weeks [6, 16]: 5.95 ng/mL | CSF, median (range) [6, 17]: 5.95 (4.77–7.43) ng/mL | times brain tissue concentration above the in vitro EC90 ([7]; 3 weeks): ~ 100 | concentration at 3 weeks [7, 18]: 412 ng/g | concentration at 3 weeks [7, 19]: 26 ng/g | concentration at 3 weeks ([7]; Tissue concentration, Cecum): 1370 ng/g | concentration at 3 weeks [7, 20]: 58 ng/g | concentration at 3 weeks [7, 21]: 583 ng/g | concentration at 3 weeks ([7]; Tissue concentration, Duodenum): 569 ng/g | concentration at 3 weeks ([7]; Tissue concentration, Ileum): 695 ng/g | concentration at 3 weeks [7, 22]: 1280 ng/g | concentration at 3 weeks [7, 23]: 975 ng/g | concentration at 3 weeks ([7]; Tissue concentration, Jejunum): 643 ng/g | concentration at 3 weeks [7, 24]: 23700 ng/g | concentration at 3 weeks ([7]; Tissue concentration, Rectum): 773 ng/g | concentration at 3 weeks [7, 25]: 288 ng/g | concentration at 3 weeks [7, 26]: 58 ng/g | concentration at 3 weeks [7, 27]: 975 ng/g | concentration at 3 weeks [7, 28]: 695 ng/g | plasma levels in humans [8]: 2740 ng/mL | apparent terminal elimination half-life [8]: 39 to 80 days | protein-adjusted 90% inhibitory concentration (PA-IC90) [9]: 166 ng/mL | in vitro EC90 [10]: 0.34 ng/mL | human CSF levels [11]: ~10 ng/mL

Rectal tissues, extracellular drug, median (range) [5]: 1.48 (0.22–2.16) ng/mg of tissue | concentration at 4 weeks [6, 16]: 2.36 ng/mL | CSF, median (range) [6, 17]: 2.36 (BLQ-2.65) ng/mL
SMILES: Nc1nc(=O)n([C@@H]2CS[C@H](CO)O2)cc1F [FTC, emtricitabine]

SMILES: Nc1nc(=O)n([C@@H]2CS[C@H](COP(=O)(O)OP(=O)(O)OP(=O)(O)O)O2)cc1F [FTC-TP, emtricitabine triphosphate]
median concentration in PBMCs during the entire treatment period [1]: 553 fmols/10^6 PBMCs | median (range) concentration in PBMCs, period of full adherence [1]: 573 (333–1528) fmols/10^6 PBMCs | median (range) concentration in PBMCs, period of suboptimal adherence [1]: 306 (undetectable-964) fmols/10^6 PBMCs | fold lower in PBMCs than in humans ([1]; full adherence vs humans treated with 300 mg of FTC): approximately 3.6 | Panel F ratio dCTP/FTC-TP [12]: 82.22 and 103.48 | Rectal tissues, intracellular, median (range) [13]: BLQ (BLQ-17) | concentration in human PBMCs ([2]; humans treated with 25 mg of TAF (TFV-DP) or 300 mg of FTC (FTC-TP) ref 12): 2,060 fmols/10^6 PBMCs | median peak concentration in human PBMCs ([2]; reviewer comment ref 12): 5149 fmol/10^6 cells | median trough concentration in human PBMCs [2]: 2060 fmol/10^6 cells

SMILES: Cc1cc(/C=C/C#N)cc(C)c1Nc1ccnc(Nc2ccc(C#N)cc2)n1 [RPV, rilpivirine]
median plasma levels during the treatment phase [4]: 108 ng/mL | plasma concentration, individual macaques [4]: 143 ng/mL and 152 ng/mL and 150 ng/mL and 153 ng/mL | persistence in plasma after the last dose [4, 14]: 2 years | concentration at 4 weeks [4, 14]: 151 ng/mL | Rectal tissues, extracellular drug, median (range) [5]: 0.45 (0.12–1.1) ng/mg of tissue | Kp at 4 weeks ([6]; rhesus monkey, intramuscular): 0.028 | concentration at 4 weeks [6, 15]: ~4 ng/mL | concentration at 4 weeks [6, 16]: 4.06 ng/mL | times CSF-to-plasma ratio higher than for CAB ([6]; rhesus monkey, in vivo): 4 | CSF, median (range) [6, 17]: 4.06 (2.93–4.52) ng/mL | times brain tissue concentration above the in vitro EC90 ([7]; 3 weeks): ~ 500 | times median brain tissue concentration higher than that of CAB ([7]; 3 weeks): 5.8 | concentration at 3 weeks [7, 18]: 773 ng/g | concentration at 3 weeks [7, 19]: 340 ng/g | concentration at 3 weeks ([7]; Tissue concentration, Cecum): 670 ng/g | concentration at 3 weeks [7, 20]: 259 ng/g | concentration at 3 weeks [7, 21]: 1770 ng/g | concentration at 3 weeks ([7]; Tissue concentration, Duodenum): 666 ng/g | concentration at 3 weeks ([7]; Tissue concentration, Ileum): 518 ng/g | concentration at 3 weeks [7, 22]: 736 ng/g | concentration at 3 weeks [7, 23]: 692 ng/g | concentration at 3 weeks ([7]; Tissue concentration, Jejunum): 697 ng/g | concentration at 3 weeks [7, 24]: 28800 ng/g | concentration at 3 weeks ([7]; Tissue concentration, Rectum): 447 ng/g | concentration at 3 weeks [7, 25]: 437 ng/g | concentration at 3 weeks [7, 26]: 340 ng/g | concentration at 3 weeks [7, 27]: 773 ng/g | concentration at 3 weeks [7, 28]: 666 ng/g | plasma levels in humans [8]: 97.5 ng/mL | apparent terminal elimination half-life [8]: 91 to 196 days | protein-adjusted 90% inhibitory concentration (PA-IC90) [9]: 12 ng/mL | in vitro EC90 [10]: 0.66 ng/mL | human CSF levels [11]: ~ 2 ng/ml

SMILES: CC(C)OC(=O)[C@H](C)N[P@](=O)(CO[C@H](C)Cn1cnc2c(N)ncnc21)Oc1ccccc1 [TAF, tenofovir alafenamide]
fold higher concentrations of TFV-DP in lymphoid tissues and PBMCs over TDF [2]: ~ 6

Rectal tissues, extracellular drug, median (range) [5]: 0.64 (0.18–0.87) ng/mg of tissue | CSF, median (range) [6, 17]: not detected and BLQ
SMILES: C[C@H](Cn1cnc2c(N)ncnc21)OCP(=O)(O)O [TFV, tenofovir]
